Assays:
[1] = tested on: ZIKV-R2A (strain FSS13025); test: microbe, parasite or virus in culture; type: cell-based; conditions: Zika virus, Huh7.5, 48 h, read-out: ZIKV-R2A replication (fold DMSO) Mean
[2] = tested on: DENV-R2A (Rluc-expressing DENV, serotype 2 strain 16681); test: microbe, parasite or virus in culture; type: cell-based, Dengue virus; conditions: Dengue virus, Huh7.5, 48 h, read-out: DENV-R2A replication (fold DMSO) Mean, deconvolution screen, singletons, 50 µM, Huh7.5, 2 days postinfection
Huh7.5 cells = test: Cell viability, CellTiter-Glo luminescent assay; conditions: deconvolution screen, singletons, 50 µM, uninfected Huh7.5

O=C(O)C(O)c1cc(F)cc(F)c1 (stereo not drawn) [PS-6482, OC(C(=O)O)c1cc(F)cc(F)c1]
activity at 50 µM [1]: 110%
activity at 50 µM [2]: 101%
Cell viability (fold DMSO) Mean (Huh7.5 cells): 1.08 fold DMSO

Cc1ccc(Br)c(N)c1 [PS-5668, Cc1ccc(Br)c(N)c1]
activity at 50 µM [1]: 101%
activity at 50 µM [2]: 102%
Cell viability (fold DMSO) Mean (Huh7.5 cells): 1.16 fold DMSO

OC[C@@H]1Cc2ccccc2CN1 [PS-6029, OC[C@@H]1Cc2ccccc2CN1]
activity at 50 µM [1]: 114%
activity at 50 µM [2]: 99%
Cell viability (fold DMSO) Mean (Huh7.5 cells): 0.97 fold DMSO

CC(=O)Nc1ccc(OC(F)F)cc1 [PS-6506, CC(=O)Nc1ccc(OC(F)F)cc1]
activity at 50 µM [1]: 110%
activity at 50 µM [2]: 105%
Cell viability (fold DMSO) Mean (Huh7.5 cells): 1.10 fold DMSO

Oc1ccc2ncccc2c1 [PS-3719, Oc1ccc2ncccc2c1]
activity at 50 µM [1]: 107%
activity at 50 µM [2]: 93%
Cell viability (fold DMSO) Mean (Huh7.5 cells): 1.19 fold DMSO

CC(=O)Nc1cc(C)ccc1F [MS-0037, CC(=O)Nc1cc(C)ccc1F]
activity at 50 µM [1]: 114%
activity at 50 µM [2]: 103%
Cell viability (fold DMSO) Mean (Huh7.5 cells): 1.28 fold DMSO

Cc1cc(O)cc(O)n1 [PS-3153, Cc1cc(O)cc(O)n1]
activity at 50 µM [1]: 109%
activity at 50 µM [2]: 100%
Cell viability (fold DMSO) Mean (Huh7.5 cells): 0.97 fold DMSO

O=C1CCCc2cc(O)ccc21 [MS-2425, Oc1ccc2C(=O)CCCc2c1]
activity at 50 µM [1]: 92%
activity at 50 µM [2]: 98%
Cell viability (fold DMSO) Mean (Huh7.5 cells): 1.05 fold DMSO

CC(C)(C)OC(=O)N1CCCCn2nc(CO)cc2C1 [Compound 10X-0603, CC(C)(C)OC(=O)N1CCCCn2nc(CO)cc2C1]
activity at 50 µM [1]: 104%
activity at 50 µM [2]: 106%
Cell viability (fold DMSO) Mean (Huh7.5 cells): 1.07 fold DMSO

Nc1cccnc1Cl [PS-5762, Nc1cccnc1Cl]
activity at 50 µM [1]: 109%
activity at 50 µM [2]: 106%
Cell viability (fold DMSO) Mean (Huh7.5 cells): 1.10 fold DMSO

CC1CCN(Cc2ccc(Cl)nc2)CC1 [Compound 2X-0836, CC1CCN(Cc2ccc(Cl)nc2)CC1]
activity at 50 µM [1]: 104%
activity at 50 µM [2]: 89%
Cell viability (fold DMSO) Mean (Huh7.5 cells): 1.16 fold DMSO

Nc1cccc(Cl)c1 [PS-5280, Nc1cccc(Cl)c1]
activity at 50 µM [1]: 116%
activity at 50 µM [2]: 111%
Cell viability (fold DMSO) Mean (Huh7.5 cells): 0.98 fold DMSO

Clc1ccc2nccnc2c1 [PS-3410, Clc1ccc2nccnc2c1]
activity at 50 µM [1]: 108%
activity at 50 µM [2]: 95%
Cell viability (fold DMSO) Mean (Huh7.5 cells): 1.20 fold DMSO

CC1(C)CN2C(=O)c3ccccc3C2S1 (stereo not drawn) [Compound 12R-0242, CC1(C)CN2C(S1)c3ccccc3C2=O]
activity at 50 µM [1]: 74%
activity at 50 µM [2]: 62%
Cell viability (fold DMSO) Mean (Huh7.5 cells): 0.81 fold DMSO

Clc1[nH]ccc2nccc1-2 [PS-4776, Clc1[nH]ccc2nccc12]
activity at 50 µM [1]: 100%
activity at 50 µM [2]: 84%
Cell viability (fold DMSO) Mean (Huh7.5 cells): 1.13 fold DMSO

Cc1ccnn1-c1ccccc1 [PS-4283, Cc1ccnn1c2ccccc2]
activity at 50 µM [1]: 106%
activity at 50 µM [2]: 104%
Cell viability (fold DMSO) Mean (Huh7.5 cells): 1.07 fold DMSO

COC(=O)c1cc(Br)no1 [PS-3994, COC(=O)c1onc(Br)c1]
activity at 50 µM [1]: 114%
activity at 50 µM [2]: 98%
Cell viability (fold DMSO) Mean (Huh7.5 cells): 1.07 fold DMSO

CC(N)c1cccnc1 (stereo not drawn) [PS-3055, CC(N)c1cccnc1]
activity at 50 µM [1]: 111%
activity at 50 µM [2]: 100%
Cell viability (fold DMSO) Mean (Huh7.5 cells): 0.98 fold DMSO

CNC(=O)c1cc(Br)c[nH]1 [Compound 10Y-0822, CNC(=O)c1cc(Br)c[nH]1]
activity at 50 µM [1]: 77%
activity at 50 µM [2]: 75%
Cell viability (fold DMSO) Mean (Huh7.5 cells): 0.89 fold DMSO

Cc1cc2c(cc1C)NC(C)CC(=O)N2 (stereo not drawn) [Compound 12W-0869, CC1CC(=O)Nc2cc(C)c(C)cc2N1]
activity at 50 µM [1]: 97%
activity at 50 µM [2]: 85%
Cell viability (fold DMSO) Mean (Huh7.5 cells): 1.09 fold DMSO

COc1ccc(CO)c(OC)c1 [PS-4550, COc1ccc(CO)c(OC)c1]
activity at 50 µM [1]: 34%
activity at 50 µM [2]: 31%
Cell viability (fold DMSO) Mean (Huh7.5 cells): 0.92 fold DMSO

Clc1ccc2nncn2c1 [GC-0731, Clc1ccc2nncn2c1]
activity at 50 µM [1]: 102%
activity at 50 µM [2]: 94%
Cell viability (fold DMSO) Mean (Huh7.5 cells): 1.03 fold DMSO

Clc1ncc(Cn2ccnc2)s1 [Compound 8P-013, Clc1ncc(Cn2ccnc2)s1]
activity at 50 µM [1]: 118%
activity at 50 µM [2]: 104%
Cell viability (fold DMSO) Mean (Huh7.5 cells): 0.94 fold DMSO

CSc1ccccc1N1CCNCC1 [SS-4074, CSc1ccccc1N2CCNCC2]
activity at 50 µM [1]: 100%
activity at 50 µM [2]: 79%
Cell viability (fold DMSO) Mean (Huh7.5 cells): 0.92 fold DMSO

N[C@@H]1c2ccccc2C[C@@H]1O [PS-4272, N[C@H]1[C@@H](O)Cc2ccccc12]
activity at 50 µM [1]: 102%
activity at 50 µM [2]: 93%
Cell viability (fold DMSO) Mean (Huh7.5 cells): 1.08 fold DMSO

CC(=O)c1ccc2cc(O)ccc2c1 [Compound 8X-0242, CC(=O)c1ccc2cc(O)ccc2c1]
activity at 50 µM [1]: 81%
activity at 50 µM [2]: 86%
Cell viability (fold DMSO) Mean (Huh7.5 cells): 1.00 fold DMSO

Cc1cccc(N2CCNCC2)n1 [FS-1568, Cc1cccc(n1)N2CCNCC2]
activity at 50 µM [1]: 102%
activity at 50 µM [2]: 91%
Cell viability (fold DMSO) Mean (Huh7.5 cells): 1.22 fold DMSO

Fc1cc(F)cc(-c2ccno2)c1 [PS-6845, Fc1cc(F)cc(c1)c2oncc2]
activity at 50 µM [1]: 111%
activity at 50 µM [2]: 100%
Cell viability (fold DMSO) Mean (Huh7.5 cells): 1.15 fold DMSO

Nc1cnccc1Cl [PS-6061, Nc1cnccc1Cl]
activity at 50 µM [1]: 102%
activity at 50 µM [2]: 102%
Cell viability (fold DMSO) Mean (Huh7.5 cells): 1.04 fold DMSO

Nc1ccc(Cl)cc1Br [PS-3798, Nc1ccc(Cl)cc1Br]
activity at 50 µM [1]: 111%
activity at 50 µM [2]: 94%
Cell viability (fold DMSO) Mean (Huh7.5 cells): 0.99 fold DMSO

CCN1C(=O)CCCc2ccccc21 [Compound 11N-585S, CCN1C(=O)CCCc2ccccc12]
activity at 50 µM [1]: 97%
activity at 50 µM [2]: 102%
Cell viability (fold DMSO) Mean (Huh7.5 cells): 0.93 fold DMSO

C[C@@H](O)c1cccc(C(F)(F)F)c1 [PS-6325, C[C@@H](O)c1cccc(c1)C(F)(F)F]
activity at 50 µM [1]: 108%
activity at 50 µM [2]: 103%
Cell viability (fold DMSO) Mean (Huh7.5 cells): 1.07 fold DMSO

CC1(C)CC(O)CC(C)(C)N1 [PS-5856, CC1(C)CC(O)CC(C)(C)N1]
activity at 50 µM [1]: 110%
activity at 50 µM [2]: 97%
Cell viability (fold DMSO) Mean (Huh7.5 cells): 1.06 fold DMSO

OCC1(c2ccc(Cl)cc2)CC1 [RS-1014, OCC1(CC1)c2ccc(Cl)cc2]
activity at 50 µM [1]: 93%
activity at 50 µM [2]: 84%
Cell viability (fold DMSO) Mean (Huh7.5 cells): 1.07 fold DMSO

Cc1onc(-c2ccccc2)c1CN [PS-4242, Cc1onc(c1CN)c2ccccc2]
activity at 50 µM [1]: 103%
activity at 50 µM [2]: 91%
Cell viability (fold DMSO) Mean (Huh7.5 cells): 0.92 fold DMSO

COc1ncc(Cl)cc1C#N [PS-5618, COc1ncc(Cl)cc1C#N]
activity at 50 µM [1]: 97%
activity at 50 µM [2]: 108%
Cell viability (fold DMSO) Mean (Huh7.5 cells): 1.05 fold DMSO

CN1C(=O)Cc2ccccc2C1=O [Compound 10L-733, CN1C(=O)Cc2ccccc2C1=O]
activity at 50 µM [1]: 114%
activity at 50 µM [2]: 101%
Cell viability (fold DMSO) Mean (Huh7.5 cells): 0.94 fold DMSO

COc1cc(F)c(C#N)c(F)c1 [PS-6866, COc1cc(F)c(C#N)c(F)c1]
activity at 50 µM [1]: 115%
activity at 50 µM [2]: 97%
Cell viability (fold DMSO) Mean (Huh7.5 cells): 1.01 fold DMSO

CCNC(=O)N1CCC(O)CC1 [SS-4002, CCNC(=O)N1CCC(O)CC1]
activity at 50 µM [1]: 98%
activity at 50 µM [2]: 103%
Cell viability (fold DMSO) Mean (Huh7.5 cells): 1.05 fold DMSO

Cc1cc(C)n2ccnc2c1 [Compound 9X-0854, Cc1cc(C)n2ccnc2c1]
activity at 50 µM [1]: 98%
activity at 50 µM [2]: 94%
Cell viability (fold DMSO) Mean (Huh7.5 cells): 1.21 fold DMSO

Brc1cnc(N2CCCC2)nc1 [PS-6092, Brc1cnc(nc1)N2CCCC2]
activity at 50 µM [1]: 103%
activity at 50 µM [2]: 105%
Cell viability (fold DMSO) Mean (Huh7.5 cells): 1.11 fold DMSO

O=C(C1CCNCC1)N1CCCC1 [PS-4906, O=C(C1CCNCC1)N2CCCC2]
activity at 50 µM [1]: 117%
activity at 50 µM [2]: 97%
Cell viability (fold DMSO) Mean (Huh7.5 cells): 0.90 fold DMSO

COc1ccccc1N1CCNC(C)C1 (stereo not drawn) [SS-2433, COc1ccccc1N2CCNC(C)C2]
activity at 50 µM [1]: 94%
activity at 50 µM [2]: 82%
Cell viability (fold DMSO) Mean (Huh7.5 cells): 1.09 fold DMSO

OCc1cccc(CO)n1 [PS-5751, OCc1cccc(CO)n1]
activity at 50 µM [1]: 113%
activity at 50 µM [2]: 100%
Cell viability (fold DMSO) Mean (Huh7.5 cells): 0.90 fold DMSO

Cn1cc(Br)c2c(N)ncnc21 [EK-0205, Cn1cc(Br)c2c(N)ncnc12]
activity at 50 µM [1]: 63%
activity at 50 µM [2]: 51%
Cell viability (fold DMSO) Mean (Huh7.5 cells): 0.87 fold DMSO

OCc1c[nH]c(-c2ccccc2)n1 [CB-0713, OCc1c[nH]c(n1)c2ccccc2]
activity at 50 µM [1]: 100%
activity at 50 µM [2]: 92%
Cell viability (fold DMSO) Mean (Huh7.5 cells): 1.02 fold DMSO

O=C(c1ccccc1)C1(O)CCCCC1 [FS-3226, OC1(CCCCC1)C(=O)c2ccccc2]
activity at 50 µM [1]: 109%
activity at 50 µM [2]: 96%
Cell viability (fold DMSO) Mean (Huh7.5 cells): 1.07 fold DMSO

Clc1ccc(N2CCNCC2)nc1 [AS-5607, Clc1ccc(nc1)N2CCNCC2]
activity at 50 µM [1]: 81%
activity at 50 µM [2]: 76%
Cell viability (fold DMSO) Mean (Huh7.5 cells): 1.13 fold DMSO

CC(=O)c1cc(Br)cs1 [Compound 10X-0139, CC(=O)c1cc(Br)cs1]
activity at 50 µM [1]: 108%
activity at 50 µM [2]: 98%
Cell viability (fold DMSO) Mean (Huh7.5 cells): 1.20 fold DMSO

O=C(O)c1ccc(N2CCCCC2)nn1 [PS-5724, OC(=O)c1ccc(nn1)N2CCCCC2]
activity at 50 µM [1]: 106%
activity at 50 µM [2]: 107%
Cell viability (fold DMSO) Mean (Huh7.5 cells): 1.01 fold DMSO

CNC(=O)Nc1ccc(F)c(C)c1 [MS-0046, CNC(=O)Nc1ccc(F)c(C)c1]
activity at 50 µM [1]: 97%
activity at 50 µM [2]: 96%
Cell viability (fold DMSO) Mean (Huh7.5 cells): 1.00 fold DMSO

Cc1onc(-c2ccccc2)c1C#N [Compound 10B-058, Cc1onc(c2ccccc2)c1C#N]
activity at 50 µM [1]: 106%
activity at 50 µM [2]: 102%
Cell viability (fold DMSO) Mean (Huh7.5 cells): 0.98 fold DMSO
